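Each compound was tested at five concentrations against cells in 96-well plates for 48 hours. The concentration for 50% growth inhibition is given as GI50.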 Active and inactive are the calls of the source. No stated cut-off is given here; in the data, active = GI50 up to about 1.1 µM and inactive = higher.
Key:
Experiment in all cases: NCI-60 cell line screen, 48 h
[1] = tested on: CAKI-1
[2] = tested on: COLO 205
[3] = tested on: DU-145
[4] = tested on: HCC 2998
[5] = tested on: HOP-62
[6] = tested on: HT-29
[7] = tested on: KM12
[8] = tested on: LOX IMVI
[9] = tested on: MCF7
[10] = tested on: MOLT-4
[11] = tested on: NCI-H460
[12] = tested on: NCI-H522
[13] = tested on: NCI/ADR-RES
[14] = tested on: SF-268
[15] = tested on: SK-MEL-28
[16] = tested on: SK-MEL-5
[17] = tested on: SN12C
[18] = tested on: SNB-75
[19] = tested on: U-251

Measured: GI50

Clc1cc2ccccc2c2ccccc12
inactive: [1] 42 µM | [2] 26.9 µM | [3] 43 µM | [4] 41 µM | [5] > 100 µM | [6] 32.4 µM | [7] 47.9 µM | [8] 53.7 µM | [9] 31.7 µM | [10] 69.2 µM | [11] 44.8 µM | [12] 33.8 µM | [13] > 100 µM | [14] 74 µM | [15] 46.2 µM | [16] 63.2 µM | [17] 86.3 µM | [18] > 100 µM | [19] 44 µM

COc1cc2oc(=O)cc(C)c2cc1[N+](=O)[O-]
inactive: [1] 13.8 µM | [2] 23.9 µM | [3] 33.1 µM | [4] 14.6 µM | [5] 41.6 µM | [6] 23.1 µM | [7] 25.7 µM | [8] 12.2 µM | [9] 25.5 µM | [10] 13.7 µM | [11] 46.3 µM | [12] 11.6 µM | [13] 28.4 µM | [14] 17.5 µM | [15] 22.6 µM | [16] 27.3 µM | [17] 16.4 µM | [18] 57.5 µM | [19] 37.4 µM

CC1(C)C=C(/C=C2/N(S(=O)(=O)C(F)(F)F)C(/C=C3/N(S(=O)(=O)C(F)(F)F)C(C)(C#N)CC3(C)C)=CC2(C)C)N=C1/C=C1/CC(C)(C)C(=O)N1 (stereo unspecified)
inactive: [1] 11.4 µM | [2] 14.2 µM | [3] 33.9 µM | [4] 35.2 µM | [5] 9.44 µM | [6] 16.8 µM | [7] 5.77 µM | [8] 17.9 µM | [9] 9.29 µM | [10] 2.84 µM | [11] 20.8 µM | [12] 5.96 µM | [13] 23.3 µM | [14] 5.79 µM | [15] 51.2 µM | [16] 13.8 µM | [17] 22.3 µM | [18] 61.5 µM | [19] 24.7 µM

CN(C)Cc1cc(C(C)(C)C)cc(CNC2CCCCC2)c1O
inactive: [1] 44.6 µM | [2] 15.9 µM | [3] 40.9 µM | [4] 11.6 µM | [5] 41.2 µM | [6] 17.5 µM | [7] 30.4 µM | [8] 22.1 µM | [9] 29.4 µM | [10] 12.3 µM | [11] 20.4 µM | [12] 24.2 µM | [13] 25.2 µM | [14] 18.7 µM | [15] 33.3 µM | [16] 15.5 µM | [17] 35.6 µM | [18] 52.4 µM | [19] 45 µM

NNC(=O)CSc1nc2ccc(I)cc2c(=O)n1Cc1ccccc1
inactive: [1] 15.3 µM | [2] 21.5 µM | [3] 31.2 µM | [4] 16.8 µM | [5] 19 µM | [6] 21.7 µM | [7] 23.5 µM | [8] 15.6 µM | [9] 22.2 µM | [10] 15 µM | [11] 18.8 µM | [12] 14.9 µM | [13] 40.6 µM | [14] 17.5 µM | [15] 28.4 µM | [16] 17.2 µM | [17] 21.3 µM | [18] 22.9 µM | [19] 20.3 µM

N#Cc1c(Nc2ccccc2)[n+]([O-])c2ccc(Cl)cc2[n+]1[O-]
inactive: [1] 5.09 µM | [2] 2.33 µM | [3] 16.1 µM | [4] 4.06 µM | [5] 7.67 µM | [6] 3.05 µM | [7] 4.36 µM | [8] 3.1 µM | [9] 3.64 µM | [10] 3.65 µM | [11] 2.42 µM | [12] 2.16 µM | [13] 2.7 µM | [14] 4.38 µM | [15] 12.9 µM | [16] 2.09 µM | [17] 4.49 µM | [18] 25.9 µM | [19] 3.15 µM

CC(=O)OC1(C)C(=O)OC/C2=C/CN(C)CCC(OC(=O)C(O)(C(C)Cl)CC1C)C2=O.c1ccccc1 (stereo unspecified)
inactive: [1] > 100 µM | [2] > 100 µM | [3] > 100 µM | [4] > 100 µM | [5] > 100 µM | [6] > 100 µM | [7] > 100 µM | [8] > 100 µM | [9] > 100 µM | [10] > 100 µM | [11] > 100 µM | [12] > 100 µM | [13] > 100 µM | [14] > 100 µM | [15] > 100 µM | [16] > 100 µM | [17] > 100 µM | [18] > 100 µM | [19] > 100 µM

C[C@]12CC[C@@H]3c4ccc(OC(=O)c5ccccc5)cc4CC[C@H]3[C@@H]1CC[C@@H]2Oc1c2ccccc2nc2ccccc12
inactive: [1] 9.73 µM | [2] 15.1 µM | [3] 9.23 µM | [4] 7.05 µM | [5] 8.17 µM | [6] 5.83 µM | [7] 14 µM | [8] 7.85 µM | [9] 17 µM | [10] 8.87 µM | [11] 8.53 µM | [12] 8.15 µM | [13] 11.4 µM | [14] 3.93 µM | [15] 12 µM | [16] 8.61 µM | [18] 10 µM | [19] 8.41 µM

— ChEMBL document CHEMBL1201862, “PubChem BioAssay data set” (2004)
